Patent publication US10611759B2, “Glutaminase inhibitors” (Rhizen Pharmaceuticals SA, priority 2014, dated 2020)
Like-named read-outs stand apart in the source and are kept apart here.

Tests used:
[1] = tested on: MDA-MB-231; assay: In vitro cell proliferation assay (MTT), MDA-MB-231; format: cell-based; details: Homo sapiens, 72 hours
Protocol: (§1) Assay 4: In Vitro Cell Proliferation Assay in Cancer Cell Lines
(§2) Growth inhibition assays were carried out using 10% FBS supplemented media. Cells were seeded at a concentration of 5000-20,000 cells/well in a 96-well plate. Test compounds at a concentration range from 0.01 to 10000 nM were added after 24 hours. Growth was assessed using the 3-[4,5-dimethylthiazol-2-yl]-2,5-diphenyltetrazolium bromide (MTT) dye reduction test at 0 h (prior to the addition of the test compound) and 72 hours after the addition of test compound. Absorbance was read on a Fluostar Optima (BMG Labtech, Germany) at a wave length of 450 nm. Data were analysed using GraphPad Prism and percent inhibition due to the test compound compared to the control was calculated accordingly.

[2] = target: T1, Glutaminase(Brain) (Mus musculus, UniProt D3Z7P3); assay: Glutaminase enzyme activity using glutaminase enzyme from mice brain/kidney homogenate (Nessler's reagent, ammonia); format: biochemical; details: for inhibition at 0.1 µM: read-out: Glutaminase(Brain) activity % inhibition 0.1 μM; for inhibition at 1 µM: read-out: Glutaminase(Brain) activity % inhibition @1 μM
T1 sequence (D3Z7P3 55-674): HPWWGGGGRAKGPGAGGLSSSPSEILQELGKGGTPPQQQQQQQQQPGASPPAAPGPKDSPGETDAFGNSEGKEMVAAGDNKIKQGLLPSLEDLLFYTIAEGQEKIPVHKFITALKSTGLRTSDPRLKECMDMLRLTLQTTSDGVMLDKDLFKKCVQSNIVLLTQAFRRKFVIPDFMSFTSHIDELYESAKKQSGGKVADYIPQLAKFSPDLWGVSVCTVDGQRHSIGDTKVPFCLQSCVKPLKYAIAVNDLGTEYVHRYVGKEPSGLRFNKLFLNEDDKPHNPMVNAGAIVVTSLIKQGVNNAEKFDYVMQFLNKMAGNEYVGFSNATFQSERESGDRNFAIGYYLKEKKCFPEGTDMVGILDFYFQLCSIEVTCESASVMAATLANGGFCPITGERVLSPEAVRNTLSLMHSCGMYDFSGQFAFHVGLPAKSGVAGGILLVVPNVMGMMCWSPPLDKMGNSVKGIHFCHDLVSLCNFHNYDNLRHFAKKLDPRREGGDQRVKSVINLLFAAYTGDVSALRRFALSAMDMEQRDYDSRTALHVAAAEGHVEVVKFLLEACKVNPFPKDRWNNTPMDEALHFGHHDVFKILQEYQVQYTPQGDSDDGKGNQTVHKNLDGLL
Protocol: Assay 3: Determination of Glutaminase Enzyme Activity Using Glutaminase Enzyme from Mice Brain/Kidney
Step 1: Preparation of Tissue Homogenates:
Male Balb/c mice were administered 0.28 M ammonium chloride in drinking water for 7 days. The animals were sacrificed and brain/kidney organs collected on dry ice. […] The tissue was homogenized and supernatants were stored at −80° C. until the enzyme assay was performed.
Aim: Compounds were assessed for their ability to inhibit the enzymatic activity of L-glutaminase present in mice brain/kidney homogenate.
Protocol: The assay was performed using a colorimetric method using Nessler's Reagent by quantifying the amount of ammonia formed as a by product during the enzymatic conversion of L-glutamine to glutamate. In the routine assay, 16 μl of tissue homogenate is added to 33 μl of Tris-Hcl phosphate buffer (pH 8) along with 1 μl of DMSO/test compound containing the desired final concentration and vortexed briefly. 50 μl of 20 mM L-glutamine Tris buffer is added to start the reaction and incubated for 15 minutes at 37° C. The ammonia formed is detected by adding 20 μl of reaction mixture to cold water in a 96 well plate followed by 20 μl of Nessler's reagent. The colour developed is measured at 450 nm. Data Analysis: Activity of the test compound is reported as % inhibition and the data is analyzed using Graphpad Prism (Graphpad software; San Diego Calif.) for IC50 determination.

[3] = tested on: Daudi; assay: In vitro cell proliferation assay (MTT), Daudi; format: cell-based; details: Homo sapiens, 72 hours
Protocol: as §1, §2

[4] = tested on: HCT116; assay: In vitro cell proliferation assay (MTT), HCT116; format: cell-based; details: Homo sapiens, HCT-116, 72 hours
Protocol: as §1, §2

[5] = tested on: Rajii; assay: In vitro cell proliferation assay (MTT), Rajii; format: cell-based; details: 72 hours
Protocol: as §1, §2

[6] = tested on: A549; assay: In vitro cell proliferation assay (MTT), A549; format: cell-based; details: Homo sapiens, 72 hours
Protocol: as §1, §2

SMILES	GI50 [1]	inhibition at 0.1 µM ([2]; 0.1 μM, mice brain homogenate)	inhibition at 1 µM ([2]; 1 μM, mice brain homogenate)	further results
O=C(Cc1cccc(OC(F)(F)F)c1)Nc1ccc(N2CCCC(c3nnc(NC(=O)Cc4cccnc4)s3)C2)cn1 (racemic) [Example 3, (RS)-2-(Pyridin-3-yl)-N-(5-(1-(6-(2-(3-(trifluoromethoxy)phenyl)acetamido)pyridin-3-yl)piperidin-3-yl)-1,3,4-thiadiazol-2-yl)acetamide]	1000 to 3000 nM	25 to 50%	50 to 75%	
O=C(Cc1cccc(OC(F)(F)F)c1)Nc1ccc(N2CCC(c3nnc(NC(=O)Cc4cccnc4)s3)CC2)cn1 [Example-4, 2-(Pyridin-3-yl)-N-(5-(1-(6-(2-(3-(trifluoromethoxy)phenyl)acetamido)pyridin-3-yl)piperidin-4-yl)-1,3,4-thiadiazol-2-yl)acetamide]	250 to 500 nM	25 to 50%	50 to 75%	
O=C(Cc1cccc(OC(F)(F)F)c1)Nc1ccc(N2CCC(c3nnc(NC(=O)Cc4ccccn4)s3)CC2)nn1 [Example-8, 2-(pyridin-2-yl)-N-(5-(1-(6-(2-(3-(trifluoromethoxy)phenyl)acetamido)pyridazin-3-yl)piperidin-4-yl)-1,3,4-thiadiazol-2-yl)acetamide]				inhibition at 0.1 µM [2]: 75 to 100%; inhibition at 1 µM [2]: 75 to 100%; GI50 [3]: < 100 nM; GI50 [4]: 250 to 500 nM; GI50 [5]: < 100 nM; GI50 [6]: 100 to 250 nM
CS(=O)(=O)Nc1cccc(CC(=O)Nc2nnc(C3CCN(c4ccc(NC(=O)Cc5cccc(OC(F)(F)F)c5)nn4)CC3)s2)c1 [Example-11, 2-(3-(Methylsulfonamido)phenyl)-N-(5-(1-(6-(2-(3-(trifluoromethoxy)phenyl)acetamido)pyridazin-3-yl)piperidin-4-yl)-1,3,4-thiadiazol-2-yl)acetamide]	250 to 500 nM	< 25%	50 to 75%	
O=C(Cc1ccccc1Cl)Nc1ccc(N2CCC(c3nnc(NC(=O)Cc4ccccn4)s3)CC2)nn1 [Example-12, 2-(2-Chlorophenyl)-N-(6-(4-(5-(2-(pyridin-2-yl)acetamido)-1,3,4-thiadiazol-2-yl)piperidin-1-yl)pyridazin-3-yl)acetamide]	< 100 nM	50 to 75%	75 to 100%	
O=C(Cc1ccccc1F)Nc1ccc(N2CCC(c3nnc(NC(=O)Cc4ccccn4)s3)CC2)nn1 [Example-14, 2-(2-Fluorophenyl)-N-(6-(4-(5-(2-(pyridin-2-yl)acetamido)-1,3,4-thiadiazol-2-yl)piperidin-1-yl)pyridazin-3-yl)acetamide]	< 100 nM	75 to 100%	75 to 100%	
O=C(Cc1ccccc1F)Nc1ccc(N2CCC(c3nnc(NC(=O)Cc4cnccn4)s3)CC2)nn1 [Example-33, 2-(2-Fluorophenyl)-N-(6-(4-(5-(2-(pyrazin-2-yl)acetamido)-1,3,4-thiadiazol-2-yl)piperidin-1-yl)pyridazin-3-yl)acetamide]		25 to 50%	50 to 75%	
O=C(Cc1cccc(OC(F)(F)F)c1)Nc1ccc(N2CCC(c3nnc(NC(=O)Cc4cccc(N5CCC5)c4)s3)CC2)nn1 [Example-34, 2-(3-(Azetidin-1-yl)phenyl)-N-(5-(1-(6-(2-(3-(trifluoromethoxy)phenyl)acetamido)pyridazin-3-yl)piperidin-4-yl)-1,3,4-thiadiazol-2-yl)acetamide]		25 to 50%	50 to 75%	
O=C(Cc1ccccn1)Nc1ccc(N2CCC(c3nnc(NC(=O)Cc4cccc(Cl)c4)s3)CC2)nn1 [Example-35, 2-(3-Chlorophenyl)-N-(5-(1-(6-(2-(pyridin-2-yl)acetamido)pyridazin-3-yl)piperidin-4-yl)-1,3,4-thiadiazol-2-yl)acetamide]		50 to 75%	75 to 100%	
O=C(Cc1cccc(OC(F)(F)F)c1)Nc1ccc(N2CCC(c3nnc(NC(=O)C(CO)c4ccccc4)s3)CC2)nn1 (centres unmarked) [Example-36, 3-Hydroxy-2-phenyl-N-(5-(1-(6-(2-(3-(trifluoromethoxy)phenyl)acetamido)pyridazin-3-yl)piperidin-4-yl)-1,3,4-thiadiazol-2-yl)propanamide]		25 to 50%	50 to 75%	

Now from value to molecule, other results behind:

GI50 [1]	inhibition at 0.1 µM ([2]; 0.1 μM, mice brain homogenate)	inhibition at 1 µM ([2]; 1 μM, mice brain homogenate)	SMILES	further results
	< 25%	< 25%	O=C(Cc1ccccn1)Nc1ccc(N2CCCC(c3nnc(NC(=O)Cc4cccc(OC(F)(F)F)c4)s3)C2)cn1 (centres unmarked) [Example-7, 2-(Pyridin-2-yl)-N-(5-(3-(5-(2-(3-(trifluoromethoxy)phenyl)acetamido)-1,3,4-thiadiazol-2-yl)piperidin-1-yl)pyridin-2-yl)acetamide]	melting point: 151 to 153 °C
100 to 250 nM			O=C(Cc1cccc(OC(F)(F)F)c1)Nc1ccc(N2CCCC(c3nnc(NC(=O)Cc4ccccn4)s3)C2)nn1 (centres unmarked) [Example-9, 2-(Pyridin-2-yl)-N-(5-(1-(6-(2-(3-(trifluoromethoxy)phenyl)acetamido)pyridazin-3-yl)piperidin-3-yl)-1,3,4-thiadiazol-2-yl)acetamide]	inhibition at 0.1 µM [2]: 50 to 75%; inhibition at 1 µM [2]: 75 to 100%
100 to 250 nM	50 to 75%	75 to 100%	O=C(Cc1cccc(OC(F)(F)F)c1)Nc1ccc(N2CCC(c3nnc(NC(=O)Cc4cccnc4)s3)CC2)nn1 [Example-10, 2-(Pyridin-3-yl)-N-(5-(1-(6-(2-(3-(trifluoromethoxy)phenyl)acetamido)pyridazin-3-yl)piperidin-4-yl)-1,3,4-thiadiazol-2-yl)acetamide]	
< 100 nM	50 to 75%	75 to 100%	O=C(Cc1cccc(OC(F)(F)F)c1)Nc1ccc(N2CCC(c3nnc(NC(=O)Cc4cnccn4)s3)CC2)nn1 [Example-15, 2-(Pyrazin-2-yl)-N-(5-(1-(6-(2-(3-(trifluoromethoxy)phenyl)acetamido)pyridazin-3-yl)piperidin-4-yl)-1,3,4-thiadiazol-2-yl)acetamide]	
< 100 nM			O=C(Cc1ccccn1)Nc1ccc(N2CCC(c3nnc(NC(=O)Cc4cccc(OC(F)(F)F)c4)s3)CC2)nn1 [Example-17, 2-(Pyridin-2-yl)-N-(6-(4-(5-(2-(3-(trifluoromethoxy)phenyl)acetamido)-1,3,4-thiadiazol-2-yl)piperidin-1-yl)pyridazin-3-yl)acetamide]	inhibition at 0.1 µM [2]: 75 to 100%; inhibition at 1 µM [2]: 75 to 100%
< 100 nM	75 to 100%	75 to 100%	O=C(Cc1cccnc1)Nc1ccc(N2CCC(c3nnc(NC(=O)Cc4cccc(OC(F)(F)F)c4)s3)CC2)nn1 [Example-18, 2-(Pyridin-3-yl)-N-(6-(4-(5-(2-(3-(trifluoromethoxy)phenyl)acetamido)-1,3,4-thiadiazol-2-yl)piperidin-1-yl)pyridazin-3-yl)acetamide]	
